Measured values: patent US4191780A, “Bromhexine derivatives and process for making same” (priority 1978, dated 1980)
“Also recorded” adds a separate entry of the source.

How the values were obtained:
[1] = tested on: amphetamine-induced stereotypies; test: Action on the amphetamine-induced stereotypies and toxicity on mice; conditions: 500 mg/kg/10 ml p.o., 60 min before dl-amphetamine 16 mg/kg/ml i.p.
Experimental: Stereotypies and death are caused 60 min. after treatment with IFT 1026 (500 mg/kg/10 ml p.o.) by injecting dl-amphetamine (16 mg/kg/ml i.p.) to groups of 10 male albino Swiss mice per cage.

[2] = tested on: blood pressure and heart rate; test: Action on blood pressure and heart rate in the anesthetized rat; format: in vivo; conditions: intraperitoneal
Experimental: After intraperitoneal administration of increasing doses of IFT 1026, blood pressure, heart rate and the amplitude of heart contractions are unchanged. The effect of IFT 1026 at the dose of 450 mg/kg on blood pressure in the anesthesized rat is exemplified by the graph in FIG. No. 1.
FIG. 1--Arterial pressure recorded in the anaesthetized rat before and after IFT 1026 administration.

[3] = tested on: Cough elicited by 15% citric acid spray; test: Antitussive effect in Guinea-pigs and mice (overall); format: in vivo; conditions: mice (oral) and Guinea-pigs (i.p.)
Experimental: (6) Antitussive effect in Guinea-pigs and mice
The effect was tested 1 hour after oral administration and 30 min. after intraperitoneal application of the antitussive agents on mice and Guinea-pigs respectively.

[4] = Long-term toxicity in rats: urine analysis; format: in vivo
Experimental: Urine analysis is carried out on 6 animals per group (3 males and 3 females) before as well as 30 and 60 days after treatment. Control group and the animals receiving 250 mg/kg Bromhexine and 350 mg/kg IFT 1026 respectively are observed.
The amount, aspect, colour, pH value, albumin, glucose, bilirubin levels and ketone bodies are recorded using also Ames reactive stripes.

[5] = Acute toxicity in rats treated orally; format: in vivo; conditions: oral
various types of cough = conditions: animal experiments; Engelhorn 1966, Merker 1966, Boyd 1966; cited from earlier work
bronchial secretion = conditions: animal experiments; Engelhorn 1966, Merker 1966, Boyd 1966; cited from earlier work

Row | Compound | amphetamine-induced death [1] | amphetamine-induced stereotypies [1] | amplitude of heart contractions ([2]; increasing doses) | heart rate ([2]; increasing doses) | blood pressure ([2]; rat, increasing doses (450 mg/kg in FIG. 1)) | antitussive effect compared in terms of the parent compound (Bromhexine) [3] | antitussive effect compared with Bromhexine [3] | urine amount, aspect, colour, pH, albumin, glucose, bilirubin, ketone bodies ([4]; 250 mg/kg Bromhexine, 350 mg/kg IFT 1026, 30 and 60 days) | impairment in the kidney ([4]; 350 mg/kg IFT 1026) | behaviour / clinical signs ([5]; high doses (up to 3000 mg/kg)) | lethal cases ([5]; increasing doses up to 3000 mg/kg, up to the seventh day after treatment) | effects on various types of cough (various types of cough) | stimulation of bronchial secretion (bronchial secretion)
1 | COc1ccccc1OCC(=O)Nc1c(Br)cc(Br)cc1CN(C)C1CCCCC1 [IFT 1026, N-(2-guaiacol-glycolyl-amino-3,5-dibromobenzyl)N-cyclohexylmethylamine] | not changed | not changed | unchanged | unchanged | unchanged | the same when compared in terms of the parent compound | slightly weaker than Bromhexine; also recorded: approximately the same as that of Bromhexine | no changes occur in said parameters | no impairment in the kidney | slight depression in behaviour, occasional tremor and stiffness | no lethal cases |  | 
2 | CN(Cc1cc(Br)cc(Br)c1N)C1CCCCC1 [Bromhexine, N-cyclohexyl-N-methyl-2-(2-amino-3,5-dibromo)benzylammonium chloride] |  |  |  |  |  |  |  |  |  |  |  | depressing effects | marked stimulation
